Assay results reported in patent publication US9393316B2, “Cancer targeting peptides for enhancing anti-cancer drug delivery and therapeutic efficiencies” (priority 2014, dated 2016).

Assays:
HCT116 cells [1] = experiment: ELISA screening of phage clones on HCT116 cells (cellular ELISA); assay type: binding, human; conditions: HCT116, cell line panel
Experimental: (§1) The selected phages were further identified by ELISA screening. 1×10^4 cells were seeded into each well of 96-well ELISA plates (Falcon, Calif., USA) overnight and were fixed with 2% paraformaldehyde or methanol/acetone (1:1) for 10 min at RT. The plates were washed twice with PBS and were blocked with 1% BSA in PBS (w/v) for 30 min at RT. Then individual phage clones were added and incubated for 1 hr at RT. Following washing three times with PBS, the plates were incubated with horseradish peroxidase (HRP)-conjugated mouse anti-M13 phage antibody (GE Healthcare) at 1:2000 dilution for 1 hr at RT. The plates were washed three times with PBS again, and were subsequently incubated with the peroxidase substrate o-phenylenediamine dihydrochloride (OPD; Sigma) plus H2O2. The reaction was terminated by 3 N HCl, and the absorbance was measured using microplate reader (Model 680, BioRad) at 490 nm.

COLO205 = experiment: Flow cytometry surface binding of phage clones; design: species or system human
Experimental: (§2) Cells were grown to 70-80% confluence and were harvested with 10 mM EDTA in PBS. Peripheral blood mononuclear cells were prepared by using Ficoll-Paque Plus density gradient separation. After washing and suspending the cells with FACS buffer (PBS containing 1% fetal bovine serum), the cells were incubated for 1 hr at 4° C. with 5×10^9, 1×10^9 cfu individual phage clones or control phage, respectively. After washing twice with FACS buffer, cells were incubated with mouse anti-M13 monoclonal antibody (GE Healthcare) at 1:2000 dilution for 1 hr followed by 30 min with phycoerythrin (PE)-conjugated goat anti-mouse secondary antibody (Jackson ImmunoResearch) at 1:250 dilution at 4° C. The emission fluorescence signals were measured using FACSCantoll (Becton Dickinson) and were analyzed by FlowJo software.

HCT116 cells [2] = experiment: Flow cytometry surface binding of phage clones; design: species or system human
Experimental: as §2

HT29 = experiment: Flow cytometry surface binding of phage clones; design: species or system human
Experimental: as §2

LS174T = experiment: Flow cytometry surface binding of phage clones; design: species or system human
Experimental: as §2

SW620 = experiment: Flow cytometry surface binding of phage clones; design: species or system human
Experimental: as §2

[3] = tested on: peripheral blood mononuclear cells (PBMC); experiment: Flow cytometry binding of phage clones to normal cells; conditions: human PBMC
Experimental: as §2

HCT116 xenografts [4] = experiment: In vivo tumor homing, phage titer in tumor and organs; design: species or system mice; conditions: 2×10^11 pfu i.v., PBS perfusion; vs brain, lungs, heart
Experimental: Non-obese diabetic-severe combined immunodeficiency (NOD/SCID) mice were injected subcutaneously (s.c.) into the dorsolateral flank with 5×10^6 HCT116 cells. When the xenograft tumor size reached 300±50 mm^3, the mice were injected intravascularly (i.v.) with 2×10^11 pfu of the targeting phage or control phage M13KO7. Seven min after injection, the mice were sacrificed and perfused through the heart with 50 mL of PBS to wash unbound phages. After perfusion, xenograft tumor and mouse organs were taken out, washed three times with cold PBS, and cut into pans, with some of them homogenized. The phages bound to each tissue sample were recovered by log-phase Escherichia coli ER2738 culture and were titered on LB/IPTG/X-Gal agar plates. In peptide competitive inhibition experiments, 2×10^9 pfu of phage was co-injected with 100 μg of corresponding peptide or an unrelated control peptide.
To investigate the targeting ability of the selected phage clones in vivo, mice bearing HCT116 xenografts (300 mm^3) were injected with 2×10^11 pfu of either the selected phages or control phage through the tail vein. Phages were circulated and then were perfused with PBS buffer to wash out non-specific binders in circulation. After perfusion, we recovered and determined the […] of phage in tumor masses and normal organs.

HCT116 xenografts [5] = experiment: Immunohistochemical localization of phages in xenograft tumor and organs; assay type: in vivo, mice; conditions: tumor vs brain, heart, lungs, colon
Experimental: The tissue samples from in vivo phage homing experiment were embedded in frozen blocks. To evaluate the phage distribution in each tissue by immunohistochemistry, the frozen specimens were cut to 8-μm-thick sections and were collected on coated slides. The slides were washed with cold PBS to remove OCT and were fixed with 4% paraformaldehyde for 10 min at RT. To block endogenous peroxidase activity, the slides were soaked with 3% hydrogen peroxide in methanol for 30 min at RT. The nonspecific antibody binding sites were blocked by immersing the section with 1% BSA in PBS for 30 min at RT. The tissue sections were incubated with mouse anti-M13 monoclonal antibody at 1:250 dilution for 1 hr, followed by adding Super Enhancer reagent (Super SENSITIVE™ Polymer HRP Detection System/DAB, BioGenex) for 20 min and Poly-HRP reagent (BioGenex) for 30 min. After washing, the sections were developed with DAB (3,3′-diaminobenzidine) Chromogen (BioGenex) supplemented with Stable DAB buffer. The reaction was stopped by adding PBS. For nuclei staining, the slides were immersed in hematoxylin for 5 min, and were then mounted with mounting solution to terminate the reaction. The images of sections were taken and analyzed using automated acquisition system (TissueGnostics).

1112SK = experiment: Cellular ELISA of phage clones; assay type: binding, human
Experimental: as §1, with “nm. To evaluate the binding activities of the three selected phage clones to various human cancer cell lines, cellular ELISA was performed to detect sixteen types of human cancer cell lines, including A498, HTB-10, B16-F10, SKOV3, PC-3, U2OS, 1112SK, […], SAS, H460, MIA Paca-2, HCT116, HUVAC, CL1-5, Mahlavu, and MDA-MB-231.” for “nm.”

A498 = experiment: Cellular ELISA of phage clones; assay type: binding, human
Experimental: as §1, with “nm. To evaluate the binding activities of the three selected phage clones to various human cancer cell lines, cellular ELISA was performed to detect sixteen types of human cancer cell lines, including A498, HTB-10, B16-F10, SKOV3, PC-3, U2OS, 1112SK, […], SAS, H460, MIA Paca-2, HCT116, HUVAC, CL1-5, Mahlavu, and MDA-MB-231.” for “nm.”

CL1-5 = experiment: Cellular ELISA of phage clones; assay type: binding, human
Experimental: as §1, with “nm. To evaluate the binding activities of the three selected phage clones to various human cancer cell lines, cellular ELISA was performed to detect sixteen types of human cancer cell lines, including A498, HTB-10, B16-F10, SKOV3, PC-3, U2OS, 1112SK, […], SAS, H460, MIA Paca-2, HCT116, HUVAC, CL1-5, Mahlavu, and MDA-MB-231.” for “nm.”

H184 = experiment: Cellular ELISA of phage clones; assay type: binding, human
Experimental: as §1, with “nm. To evaluate the binding activities of the three selected phage clones to various human cancer cell lines, cellular ELISA was performed to detect sixteen types of human cancer cell lines, including A498, HTB-10, B16-F10, SKOV3, PC-3, U2OS, 1112SK, […], SAS, H460, MIA Paca-2, HCT116, HUVAC, CL1-5, Mahlavu, and MDA-MB-231.” for “nm.”

H460 = experiment: Cellular ELISA of phage clones; assay type: binding, human
Experimental: as §1, with “nm. To evaluate the binding activities of the three selected phage clones to various human cancer cell lines, cellular ELISA was performed to detect sixteen types of human cancer cell lines, including A498, HTB-10, B16-F10, SKOV3, PC-3, U2OS, 1112SK, […], SAS, H460, MIA Paca-2, HCT116, HUVAC, CL1-5, Mahlavu, and MDA-MB-231.” for “nm.”

HTB-10 = experiment: Cellular ELISA of phage clones; assay type: binding, human
Experimental: as §1, with “nm. To evaluate the binding activities of the three selected phage clones to various human cancer cell lines, cellular ELISA was performed to detect sixteen types of human cancer cell lines, including A498, HTB-10, B16-F10, SKOV3, PC-3, U2OS, 1112SK, […], SAS, H460, MIA Paca-2, HCT116, HUVAC, CL1-5, Mahlavu, and MDA-MB-231.” for “nm.”

HUVAC = experiment: Cellular ELISA of phage clones; assay type: binding, human
Experimental: as §1, with “nm. To evaluate the binding activities of the three selected phage clones to various human cancer cell lines, cellular ELISA was performed to detect sixteen types of human cancer cell lines, including A498, HTB-10, B16-F10, SKOV3, PC-3, U2OS, 1112SK, […], SAS, H460, MIA Paca-2, HCT116, HUVAC, CL1-5, Mahlavu, and MDA-MB-231.” for “nm.”

MDA-MB-231 = experiment: Cellular ELISA of phage clones; assay type: binding, human
Experimental: as §1, with “nm. To evaluate the binding activities of the three selected phage clones to various human cancer cell lines, cellular ELISA was performed to detect sixteen types of human cancer cell lines, including A498, HTB-10, B16-F10, SKOV3, PC-3, U2OS, 1112SK, […], SAS, H460, MIA Paca-2, HCT116, HUVAC, CL1-5, Mahlavu, and MDA-MB-231.” for “nm.”

MIA Paca-2 = experiment: Cellular ELISA of phage clones; assay type: binding, human
Experimental: as §1, with “nm. To evaluate the binding activities of the three selected phage clones to various human cancer cell lines, cellular ELISA was performed to detect sixteen types of human cancer cell lines, including A498, HTB-10, B16-F10, SKOV3, PC-3, U2OS, 1112SK, […], SAS, H460, MIA Paca-2, HCT116, HUVAC, CL1-5, Mahlavu, and MDA-MB-231.” for “nm.”

Mahlavu = experiment: Cellular ELISA of phage clones; assay type: binding, human
Experimental: as §1, with “nm. To evaluate the binding activities of the three selected phage clones to various human cancer cell lines, cellular ELISA was performed to detect sixteen types of human cancer cell lines, including A498, HTB-10, B16-F10, SKOV3, PC-3, U2OS, 1112SK, […], SAS, H460, MIA Paca-2, HCT116, HUVAC, CL1-5, Mahlavu, and MDA-MB-231.” for “nm.”

PC-3 = experiment: Cellular ELISA of phage clones; assay type: binding, human
Experimental: as §1, with “nm. To evaluate the binding activities of the three selected phage clones to various human cancer cell lines, cellular ELISA was performed to detect sixteen types of human cancer cell lines, including A498, HTB-10, B16-F10, SKOV3, PC-3, U2OS, 1112SK, […], SAS, H460, MIA Paca-2, HCT116, HUVAC, CL1-5, Mahlavu, and MDA-MB-231.” for “nm.”

SAS = experiment: Cellular ELISA of phage clones; assay type: binding, human
Experimental: as §1, with “nm. To evaluate the binding activities of the three selected phage clones to various human cancer cell lines, cellular ELISA was performed to detect sixteen types of human cancer cell lines, including A498, HTB-10, B16-F10, SKOV3, PC-3, U2OS, 1112SK, […], SAS, H460, MIA Paca-2, HCT116, HUVAC, CL1-5, Mahlavu, and MDA-MB-231.” for “nm.”

SKOV3 = experiment: Cellular ELISA of phage clones; assay type: binding, human
Experimental: as §1, with “nm. To evaluate the binding activities of the three selected phage clones to various human cancer cell lines, cellular ELISA was performed to detect sixteen types of human cancer cell lines, including A498, HTB-10, B16-F10, SKOV3, PC-3, U2OS, 1112SK, […], SAS, H460, MIA Paca-2, HCT116, HUVAC, CL1-5, Mahlavu, and MDA-MB-231.” for “nm.”

U2OS = experiment: Cellular ELISA of phage clones; assay type: binding, human
Experimental: as §1, with “nm. To evaluate the binding activities of the three selected phage clones to various human cancer cell lines, cellular ELISA was performed to detect sixteen types of human cancer cell lines, including A498, HTB-10, B16-F10, SKOV3, PC-3, U2OS, 1112SK, […], SAS, H460, MIA Paca-2, HCT116, HUVAC, CL1-5, Mahlavu, and MDA-MB-231.” for “nm.”

B16-F10 = experiment: Cellular ELISA of phage clones; assay type: binding, mouse
Experimental: as §1, with “nm. To evaluate the binding activities of the three selected phage clones to various human cancer cell lines, cellular ELISA was performed to detect sixteen types of human cancer cell lines, including A498, HTB-10, B16-F10, SKOV3, PC-3, U2OS, 1112SK, […], SAS, H460, MIA Paca-2, HCT116, HUVAC, CL1-5, Mahlavu, and MDA-MB-231.” for “nm.”

In the case of TSVSIVSTVLTP [HCT69], the “binding by cellular ELISA” value (HCT116 cells [1]) was “highly specific binding”, the “binding activity by FACS” value (COLO205) was “weak affinity” and the “cell surface-binding activity by flow cytometry” value (HCT116 cells [2]) was “high binding affinity”. For the same sequence, the “binding activity by FACS” value (HT29) was “high binding affinity”, the “binding activity by FACS” value (LS174T) was “moderate affinity” and the “binding activity by FACS” value (SW620) was “high binding affinity”. The “binding activity to PBMC (normal cells) by FACS” value [3] was “not to normal cells”, the “phage accumulation in tumor mass vs normal organs (phage titer)” value (HCT116 xenografts [4]) was “significantly accumulated in the tumor mass” and the “phage localization by immunostaining of tissue sections” value (HCT116 xenografts [5]) was “selectively localized in tumor tissues”. The “phage localization by immunostaining of tissue sections” value (HCT116 xenografts [5]; listed as HCT-69) was “strong accumulated in the tumor”, the “binding by cellular ELISA” value (1112SK) was “highly specific binding” and the “binding by cellular ELISA” value (A498) was “highly specific binding”. The “binding by cellular ELISA” value (CL1-5) was “moderate binding”, the “binding by cellular ELISA” value (H184) was “highly specific binding” and the “binding by cellular ELISA” value (H460) was “highly specific binding”. For the same sequence, the “binding by cellular ELISA” value (HTB-10) was “moderate binding”, the “binding by cellular ELISA” value (HUVAC) was “highly specific binding” and the “binding by cellular ELISA” value (MDA-MB-231) was “highly specific binding”. The “binding by cellular ELISA” value (MIA Paca-2) was “highly specific binding”, the “binding by cellular ELISA” value (Mahlavu) was “highly specific binding” and the “binding by cellular ELISA” value (PC-3) was “highly specific binding”. The “binding by cellular ELISA” value (SAS) was “highly specific binding”, the “binding by cellular ELISA” value (SKOV3) was “highly specific binding” and the “binding by cellular ELISA” value (U2OS) was “highly specific binding”. The “binding by cellular ELISA” value (B16-F10) was “highly specific binding”.
